The source of these data is PMC7470113, “Design, synthesis and biological evaluation of edaravone derivatives bearing the N-benzyl pyridinium moiety as multifunctional anti-Alzheimer’s agents” (Journal of Enzyme Inhibition and Medicinal Chemistry, 2020).

For one assay, the target named is T1, eeAChE (Electrophorus electricus, UniProt O42275).
T1 construct: purchased Sigma-Aldrich
The assay is described as follows: Cholinesterase inhibition assay (modified Ellman's method), eeAChE. Format: biochemical. The note with it: for IC50: eeAChE, Ellman, 25 °C, triplicate, read-out: AChE IC50; for SI AChE (AChE selectivity index = IC50(eqBuChE)/IC50(eeAChE)): ratio BuChE/AChE. On the procedure:
(§1) . […] The test compounds and control were dissolved in DMSO and added to the well to yield various concentrations (1000 µM, 100 µM, 10 µM, 1 µM, 0.1 µM and 0.01 µM). The quantity of DMSO per well accumulated to below 0.01%[45]. Each concentration of test compound and control was conducted in triplicate to ensure consistent results. The well-plates were then incubated at 25 °C for 10 min. Thereafter, 30 µL of either the ATCI or BTCI substrate was added to each well. The plate was then placed inside a Rayto 6500 spectrometer and the absorbance was read at 405 nm every 45 s for 5 min. The percentage activity was calculated using the following equation: [(absorbance of blank − absorbance of test compounds)/absorbance of blank × 100)]. All data analysis was conducted on GraphPad Prism version 8.2.1 for Mac OS, GraphPad Software (San Diego, CA, USA)
(§2) The inhibitory activities of the synthesised compounds were evaluated using eeAChE (electric eel) and eqBuChE (equine serum) according to a modified method of Ellman[44]. […].
Background: In Ellman's method for cholinesterases, released thiocholine reacts with DTNB.

Another assay addresses T2, eqBuChE (Equus caballus, UniProt P81908).
T2 construct: purchased Sigma-Aldrich; host or cells: equine serum
Kind of assay: Cholinesterase inhibition assay (modified Ellman's method), eqBuChE. Format: biochemical. The note with it: 25 °C, triplicate, read-out: BuChE IC50. On the procedure: as §1, §2

A short description of assay [1]: DPPH+ free radical scavenging antioxidant assay. On the procedure:
Antioxidant activity was studied with the DPPH^+ free radical scavenging assay[46]^,[47]. DPPH^+ and trolox were purchased from Sigma-Aldrich®. The following method was employed, as previously described, to determine the antioxidant activity of the test compounds. Each well of a 96 well plate, contained the following: 180 µL of 0.12 mM DPPH^+ dissolved in methanol and 20 µL of either test compound, control (trolox) or blank (DMSO). The test compounds and control were dissolved in DMSO and added to the well to yield various concentrations (1000 µM, 100 µM, 10 µM, 1 µM and 0.1 µM). […] The well plate was incubated at 25 °C for 30 min within a dark space. […] The quantity of DMSO per well accumulated to below 0.01%[45]. […] The percentage activity was calculated using the following equation: [(absorbance of blank − absorbance of test compounds)/absorbance of blank × 100)]. All data analysis was conducted on GraphPad Prism version 8.2.1 for Mac OS, GraphPad Software (San Diego, California, USA).
The 2,2-diphenyl-1-picrylhydrazyl (DPPH^+) assay was employed to determine the antioxidant ability of the synthesised compounds.
On the technique in general: Loss of DPPH colour is used to gauge radical scavenging.

On the set-up of assay [2]: method as in PMID 29907205. The settings on record: read-out: DPPH+ IC50 (antioxidant activity of edaravone); cited from earlier work.
Where [3] appears, read: 0.12 mM DPPH+ in methanol, 30 min, 25 °C, 517 nm, read-out: DPPH+ IC50.

Structures are written as SMILES. Like-named read-outs stand apart in the source and are kept apart here. A value given as a limit tells only on which side of the number the result lay.

T2 sequence (P81908 whole entry): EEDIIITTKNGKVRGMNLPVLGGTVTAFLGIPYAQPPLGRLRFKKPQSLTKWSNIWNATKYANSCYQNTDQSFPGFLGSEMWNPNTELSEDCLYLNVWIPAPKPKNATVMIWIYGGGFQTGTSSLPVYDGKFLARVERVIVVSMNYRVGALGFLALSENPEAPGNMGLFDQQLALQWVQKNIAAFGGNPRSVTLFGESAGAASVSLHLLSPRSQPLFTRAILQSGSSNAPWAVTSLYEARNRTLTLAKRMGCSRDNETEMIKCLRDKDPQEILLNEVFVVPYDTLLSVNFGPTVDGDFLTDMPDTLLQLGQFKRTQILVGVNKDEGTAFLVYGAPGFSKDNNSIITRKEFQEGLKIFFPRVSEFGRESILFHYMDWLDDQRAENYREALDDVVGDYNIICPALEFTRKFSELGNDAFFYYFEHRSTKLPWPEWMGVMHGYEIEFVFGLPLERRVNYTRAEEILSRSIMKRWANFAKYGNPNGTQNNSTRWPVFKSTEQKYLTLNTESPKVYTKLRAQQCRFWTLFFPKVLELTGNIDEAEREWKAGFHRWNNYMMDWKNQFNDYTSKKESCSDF
T1 sequence (O42275 24-633): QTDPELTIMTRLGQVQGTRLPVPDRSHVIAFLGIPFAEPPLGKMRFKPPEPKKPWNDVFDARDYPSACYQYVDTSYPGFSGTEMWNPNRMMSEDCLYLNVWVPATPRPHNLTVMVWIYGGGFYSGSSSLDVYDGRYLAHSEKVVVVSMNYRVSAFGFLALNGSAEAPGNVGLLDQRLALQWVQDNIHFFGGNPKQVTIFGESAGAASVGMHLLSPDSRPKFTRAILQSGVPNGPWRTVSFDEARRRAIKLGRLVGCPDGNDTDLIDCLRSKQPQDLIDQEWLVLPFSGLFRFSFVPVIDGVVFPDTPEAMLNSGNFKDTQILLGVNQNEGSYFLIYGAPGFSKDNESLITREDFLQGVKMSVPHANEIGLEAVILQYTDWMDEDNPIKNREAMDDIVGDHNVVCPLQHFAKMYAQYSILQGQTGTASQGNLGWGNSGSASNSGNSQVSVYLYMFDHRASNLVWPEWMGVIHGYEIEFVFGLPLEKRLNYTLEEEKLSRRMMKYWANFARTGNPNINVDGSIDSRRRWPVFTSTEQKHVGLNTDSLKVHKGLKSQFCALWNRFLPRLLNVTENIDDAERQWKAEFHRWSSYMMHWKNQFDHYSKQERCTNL

As for `CC1=NN(c2ccc(C(=O)NCc3cc[n+](Cc4ccc(Br)cc4)cc3)cc2)C(=O)C1` [Compound 5i, 1-[(4-Bromophenyl)methyl]-4-({[4–(3-methyl-5-oxo-4H-pyrazol-1-yl)phenyl]foramido}methyl)pyridin-1-ium bromide], the values for the IC50 (at eeAChE; at eqBuChE; in assay [1] (setting [3])) were 11.5 µM, > 1000 µM and 18.1 µM, respectively. Also, the “SI AChE (AChE selectivity index = IC50(eqBuChE)/IC50(eeAChE))” value at eeAChE is recorded as >87.
For the molecule `CC1=NN(c2ccc(C(=O)NCc3cc[n+](Cc4cccc(Br)c4)cc3)cc2)C(=O)C1` [Compound 5h, 1-[(3-Bromophenyl)methyl]-4-({[4–(3-methyl-5-oxo-4H-pyrazol-1-yl)phenyl]foramido}methyl)pyridin-1-ium bromide], the IC50 at eeAChE was > 100 µM; on eqBuChE it was > 1000 µM; in assay [1] (setting [3]), 13.3 µM.
Taken in the same sequence, the figures for `CC1=NN(c2ccc(C(=O)NCc3ccncc3)cc2)C(=O)C1` [Compound 3, 4–(3-Methyl-5-oxo-4H-pyrazol-1-yl)-N-(pyridine-4-ylmethyl)benzamide] were > 100 µM, > 1000 µM and 12.5 µM.
As to `CC1=NN(c2ccc(C(=O)NCc3cc[n+](Cc4ccccc4Br)cc3)cc2)C(=O)C1` [Compound 5g, 1-[(2-Bromophenyl)methyl]-4-({[4–(3-methyl-5-oxo-4H-pyrazol-1-yl)phenyl]foramido}methyl)pyridin-1-ium bromide], the IC50 at eeAChE turned out to be 3.5 µM; on eqBuChE it was 160 µM; in assay [1] (setting [3]), 19 µM; in assay [1] (supplement, dose response curves, read-out: Antioxidant activity (DPPH+) dose response curve IC50), 19 µM. Besides, the “SI AChE (AChE selectivity index = IC50(eqBuChE)/IC50(eeAChE))” value on eeAChE turned out to be 46.
For the molecule `CC1=NN(c2ccc(C(=O)NCc3cc[n+](Cc4cccc(Cl)c4)cc3)cc2)C(=O)C1` [Compound 5f, 1-[(3-Chlorophenyl)methyl]-4-({[4–(3-methyl-5-oxo-4H-pyrazol-1-yl)phenyl]foramido}methyl)pyridin-1-ium bromide], the IC50 on eeAChE was determined as 3.3 µM; at eqBuChE, 891 µM; in assay [1] (setting [3]), 13.1 µM. In addition, the “SI AChE (AChE selectivity index = IC50(eqBuChE)/IC50(eeAChE))” value on eeAChE was 270.
Taken in the same sequence, the figures for `CC1=NN(c2ccc(C(=O)NCc3cc[n+](Cc4ccc(C)cc4)cc3)cc2)C(=O)C1` [Compound 5l] were 95.5 µM, > 1000 µM, 14.5 µM and >11.
Consider `CC1=NN(c2ccc(C(=O)NCc3cc[n+](Cc4ccccc4)cc3)cc2)C(=O)C1` [Compound 5a, 1-Benzyl-4-({[4–(3-methyl-5-oxo-4H-pyrazol-1-yl)phenyl]foramido}methyl)pyridin-1-ium bromide], for which the IC50 at eeAChE was 30 µM; on eqBuChE, > 1000 µM; in assay [1] (setting [3]) it was 22.9 µM. The “SI AChE (AChE selectivity index = IC50(eqBuChE)/IC50(eeAChE))” value at eeAChE was >33.
On the same counts, the results for `CC1=NN(c2ccc(C(=O)NCc3cc[n+](Cc4ccccc4C)cc3)cc2)C(=O)C1` [Compound 5j] are 19.9 µM, 630 µM, 9.5 µM and 32.
Turning to `CC1=NN(c2ccccc2)C(=O)C1` [Edaravone], the IC50 in assay [2] was 4.7 µM.
In the case of `CC1=NN(c2ccc(C(=O)NCc3cc[n+](Cc4cccc(C)c4)cc3)cc2)C(=O)C1` [Compound 5k], the IC50 on eeAChE was 69.1 µM; on eqBuChE, > 1000 µM; in assay [1] (setting [3]) it was 27.5 µM. The “SI AChE (AChE selectivity index = IC50(eqBuChE)/IC50(eeAChE))” value on eeAChE is given as >15.
On the same counts, the results for `CC1=NN(c2ccc(C(=O)NCc3cc[n+](Cc4ccc(F)cc4)cc3)cc2)C(=O)C1` [Compound 5d, 1-[(4-Fluorophenyl)methyl]-4-({[4–(3-methyl-5-oxo-4H-pyrazol-1-yl)phenyl]foramido}methyl)pyridin-1-ium bromide] are 3.6 µM, > 1000 µM, 11.5 µM and >278.
In the case of `CC1=NN(c2ccc(C(=O)NCc3cc[n+](Cc4ccccc4F)cc3)cc2)C(=O)C1` [Compound 5b, 1-[(2-Fluorophenyl)methyl]-4-({[4–(3-methyl-5-oxo-4H-pyrazol-1-yl)phenyl]foramido}methyl)pyridin-1-ium bromide], the half-maximal inhibitory concentration (IC50) was 1.2 µM on eeAChE, > 1000 µM on eqBuChE and 28.8 µM in assay [1] (setting [3]).
Consider `CC1=NN(c2ccc(C(=O)NCc3cc[n+](Cc4ccccc4Cl)cc3)cc2)C(=O)C1` [Compound 5e, 1-[(2-Chlorophenyl)methyl]-4-({[4–(3-methyl-5-oxo-4H-pyrazol-1-yl)phenyl]foramido}methyl)pyridin-1-ium bromide], for which the concentration for half-maximal inhibition (IC50) at eeAChE is 1.9 µM; on eqBuChE, 890 µM; in assay [1] (setting [3]), 13.8 µM. Also, at eeAChE, the “SI AChE (AChE selectivity index = IC50(eqBuChE)/IC50(eeAChE))” value worked out at 468.
As for `Cc1c(C)c2c(c(C)c1O)CCC(C)(C(=O)O)O2` (centres unmarked) [Trolox, reference compound], the IC50 in assay [1] (setting [3]) worked out at 13.1 µM.
As to `CC1=NN(c2ccc(C(=O)NCc3cc[n+](Cc4cccc(F)c4)cc3)cc2)C(=O)C1` [Compound 5c, 1-[(3-Fluorophenyl)methyl]-4-({[4–(3-methyl-5-oxo-4H-pyrazol-1-yl)phenyl]foramido}methyl)pyridin-1-ium bromide], the IC50 at eeAChE turned out to be 4.6 µM; on eqBuChE, 926 µM; in assay [1] (setting [3]) it was 25 µM. The “SI AChE (AChE selectivity index = IC50(eqBuChE)/IC50(eeAChE))” value at eeAChE is reported as 201.
For `CC1=NN(c2ccc(C(=O)O)cc2)C(=O)C1` [Compound 1, Edaravone-COOH], the IC50 in assay [1] (setting [3]) came to 45.7 µM.

The term IC50 denotes the midpoint of a concentration-inhibition curve.
